{"source": "paper PMC7127579", "about": "(Febs Letters, 2006)", "molecular_target": "T1, FhePrx (recombinant 2-Cys peroxiredoxin of Fasciola hepatica) (Fasciola hepatica, UniProt P91883)", "T1 sequence (P91883 1-194)": "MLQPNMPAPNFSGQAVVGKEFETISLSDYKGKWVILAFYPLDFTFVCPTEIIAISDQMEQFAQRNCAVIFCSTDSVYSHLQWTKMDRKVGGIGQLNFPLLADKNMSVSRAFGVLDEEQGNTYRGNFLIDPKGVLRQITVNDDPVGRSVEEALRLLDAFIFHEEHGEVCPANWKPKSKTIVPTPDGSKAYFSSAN", "assay": "coupled NADPH oxidation assay", "assay_type": "biochemical", "details": "E. coli thioredoxin and thioredoxin reductase, 0.25 mM NADPH, 1 mM EDTA, 5 mM potassium phosphate pH 7.0, 22 °C", "data": [{"smiles": "CC(C)(OO)c1ccccc1", "note": "[Cumene hydroperoxide]", "values": [{"measurement": "Km", "result": 12.7, "unit": "µM"}]}, {"smiles": "CC(C)(C)OO", "note": "[t-Butyl hydroperoxide]", "values": [{"measurement": "Km", "result": 18.6, "unit": "µM"}]}]}
